From patent US6465654B2, “Process for preparing 1-substituted, 2-substituted 1H-imidazo[4, 5-c]quinoline-4-amines” (3M Innovative Properties Company, priority 1991, dated 2002)

Key:
interferon-α = assay: Interferon-α induction in human cells, PBM; format: cell-based; conditions: 24 hours
[1] = tested on: vesicular stomatitis virus (VSV); assay: microbe, parasite or virus in culture; format: cell-based; conditions: Vesicular stomatitis virus, read-out: VSV Yield Inhibition
interferon = assay: Interferon induction in mice; format: in vivo; conditions: mouse serum
Procedure: One hour later blood samples are withdrawn from the first group. The samples are pooled then centrifuged. The serum is removed from the centrifuge tube, split into two portions, then placed in freezing vials and maintained at −70° C. until analysis. This procedure is repeated at 2 hours with the second group of mice and at 4 hours with the third group of mice. Samples are assayed as described above in connection with the analysis of interferon induction in human cells. The results are expressed in the table below as α/β reference units/mL based on the value obtained for a mouse MU-1-IF standard. Results are shown in the table below wherein results designated as “<” a certain number indicate that interferon was not detectable in amounts above the lower sensitivity level of the assay.

Row | Compound | Interferon-α induction (interferon-α; dose concentration 0.10 μg/mL) | Interferon-α induction (interferon-α; dose concentration 0.50 μg/mL) | Interferon-α induction (interferon-α; dose concentration 1.0 μg/mL) | Interferon-α induction (interferon-α; dose concentration 5.0 μg/mL) | Interferon induction in mice (interferon; oral 0.3 mg/kg, 1 hr) | Interferon induction in mice (interferon; oral 0.3 mg/kg, 2 hr) [Reference Units/mL] | Interferon induction in mice (interferon; oral 0.3 mg/kg, 4 hr) | Interferon induction in mice (interferon; oral 1 mg/kg, 1 hr) | Interferon induction in mice (interferon; oral 1 mg/kg, 2 hr) [Reference Units/mL] | Interferon induction in mice (interferon; oral 1 mg/kg, 4 hr) | Interferon induction in mice (interferon; oral 3 mg/kg, 1 hr) | Interferon induction in mice (interferon; oral 3 mg/kg, 2 hr) | Interferon induction in mice (interferon; oral 3 mg/kg, 4 hr) | Interferon induction in mice (interferon; oral 10 mg/kg, 1 hr) [Reference Units/mL] | Interferon induction in mice (interferon; oral 10 mg/kg, 2 hr) [Reference Units/mL] | Interferon induction in mice (interferon; oral 10 mg/kg, 4 hr) | Interferon-α induction (interferon-α; dose concentration 0.01 μg/mL) | Interferon-α induction (interferon-α; dose concentration 0.05 μg/mL) | further results
1 | CC(C)Cn1c(CC(C)O)nc2c(N)nc3ccccc3c21 (stereo not drawn) [Example 81, 4-Amino-α-methyl-1-(2-methylpropyl)-1H-imidazo[4,5-c]quinoline-2-ethanol] | 1100 α Reference Units/mL | 2200 α Reference Units/mL | 460 α Reference Units/mL | 1100 α Reference Units/mL |  |  |  |  |  |  |  |  |  |  |  |  |  |  | log reduction at 0.1 µg/mL [1]: 5; log reduction at 0.5 µg/mL [1]: 4; log reduction at 1 µg/mL [1]: 5
2 | Nc1nc2ccccc2c2c1nc(CN1CCOCC1)n2Cc1ccccc1 [Example 29, 2-Morpholinomethyl-1-phenylmethyl-1H-imidazo-[4,5-c]quinolin-4-amine] | <5.4 α Reference Units/mL | 440 α Reference Units/mL | 1000 α Reference Units/mL | 580 α Reference Units/mL | <45 Reference Units/mL | <45 | <45 Reference Units/mL | <45 Reference Units/mL | <45 | <45 Reference Units/mL | <45 Reference Units/mL | <45 Reference Units/mL | <45 Reference Units/mL | <45 | <45 | <45 Reference Units/mL |  |  | 
3 | 1-Butyl-2-methoxyethyl-1H-imidazo[4,5-c]quinolin-4-amine [Example 115] | 120 α Reference Units/mL | 190 α Reference Units/mL | 190 α Reference Units/mL | 240 α Reference Units/mL | ˜380 Reference Units/mL | 2500 | ˜360 Reference Units/mL | 1400 Reference Units/mL | 2900 | ˜310 Reference Units/mL | 2200 Reference Units/mL | 5300 Reference Units/mL | ˜310 Reference Units/mL | 5600 | 5300 | 870 Reference Units/mL | 91 α Reference Units/mL | 96 α Reference Units/mL | 
4 | 4-Amino-N-hydroxyethyl-N-methyl-1-phenylmethyl-1H-imidazo[4,5-c]quinoline-2-methanamine Hemihydrate [Example 30] | <4 α Reference Units/mL | <4 α Reference Units/mL | <4 α Reference Units/mL | 72 α Reference Units/mL | <120 Reference Units/mL | <120 | <120 Reference Units/mL | <120 Reference Units/mL | <120 | <120 Reference Units/mL | <120 Reference Units/mL | <120 Reference Units/mL | <120 Reference Units/mL | <120 | 600 | <120 Reference Units/mL |  |  | 
5 | CC(=O)OC(C)c1nc2c(N)nc3ccccc3c2n1CC(C)C.O (stereo not drawn) [Example 69, 4-Amino-α-methyl-1-(2-methylpropyl)-1H-imidazo[4,5-c]quinoline-2-methyl Acetate Hydrate] | 1000 α Reference Units/mL | 680 α Reference Units/mL | 390 α Reference Units/mL | 900 α Reference Units/mL | <150 Reference Units/mL | <150 | <150 Reference Units/mL | <150 Reference Units/mL | <150 | <150 Reference Units/mL | ≦270 Reference Units/mL | ≦150 Reference Units/mL | <150 Reference Units/mL | 1000 | 1000 | ≦340 Reference Units/mL | <6.4 α Reference Units/mL | <6.4 α Reference Units/mL | 
6 | CCCCn1c(COCC)nc2c(N)nc3ccccc3c21 [Example 117, 1-Butyl-2-ethoxymethyl-1H-imidazo[4,5-c]quinolin-4-amine] | 340 α Reference Units/mL | 140 α Reference Units/mL | 91 α Reference Units/mL | 110 α Reference Units/mL | <160 Reference Units/mL | 1200 | <160 Reference Units/mL | ≦270 Reference Units/mL | 630 | ≦270 Reference Units/mL | ˜820 Reference Units/mL | 2200 Reference Units/mL | ˜310 Reference Units/mL | 1100 | 480 | ˜310 Reference Units/mL | <4.4 α Reference Units/mL | 360 α Reference Units/mL | 
7 | CCCCC(c1nc2c(N)nc3ccccc3c2n1CC(C)C)N1CCOCC1 (stereo not shown) [Example 62, 2-[1-(1-Morpholino)pentyl]1-1-(2-methylpropyl)-1H-imidazo[4,5-c]quinolin-4-amine] | <5 α Reference Units/mL | <5 α Reference Units/mL | 31 α Reference Units/mL | 760 α Reference Units/mL | <56 Reference Units/mL | <56 | <56 Reference Units/mL | <56 Reference Units/mL | 97 | <56 Reference Units/mL | 220 Reference Units/mL | 870 Reference Units/mL | 160 Reference Units/mL | 380 | 1100 | 380 Reference Units/mL |  |  | 
